Assay results from patent US8404866B2, “Substituted heterocyclic mercaptosulfonamide metalloprotease inhibitors” (Florida State University Research Foundation, priority 2008, dated 2013).
Where a name gives a salt, the structure may show the parent alone.

Experiments:
[1] = system: human mesenchymal stem cells (hMSC); test: MMPI cytotoxicity / growth of hMSC (trypan blue count); assay type: cell-based; settings: 1 nM to 100 μM, 24 hours
Protocol: Passage 3 human adult bone marrow-derived mesenchymal stem cells (hMSCs, Tulane Center for Gene Therapy) were plated for a recovery phase of 24 hours at 37° C. and 5% CO2 in Alpha Minimum Essential Medium (αMEM, Sigma Aldrich) containing L-glutamine but without ribonucleosides or deoxyribonucleosides, 16.5% FBS, ˜2-4 mM L-glutamine, and penicillin and streptomycin as antibiotics. After the recovery phase, hMSCs were seeded into 6-well plates at a density of ˜60 cells/cm^2 within each well containing 2 mL of cell culture medium. Fresh cell culture medium was added every 3 days until the cells reached a confluency of approximately ˜70% at which media was changed to the conditioned forms necessary for observing MMPI cytotoxicity.
(§1) Upon reaching the desired confluency, each cell type was treated with the respective fresh media that was conditioned with a logarithmic panel of MMPI concentrations ranging from 1 nM to 100 μM. Specifically, each of the inhibitors were dissolved in an appropriate amount of 100% EtOH to generate 8 mM stock solutions from which an aliquot was used to produce serial dilutions with either SmBm or αMEM. The conditioned media was added to either hCASMCs or hMSCs and incubated for 24 hours. […] In order to quantify the levels of toxicity these inhibitors had on hCASMC and hMSC growth and viability, the cells were treated with trypan blue and counted via a hemocytometer. […]

[2] = system: human brain microvascular endothelial cells (hBMECs); test: Endothelial cell migration and wound-healing assay; assay type: cell-based; settings: at 3 μM and above, 24 hours
Protocol: Culture of human brain microvascular endothelial cells: Human brain microvascular endothelial cells (hBMECs) were cultured with EGM-2MV Microvascular Endothelial Cell Medium-2 1 kit Bullet Kit, 5% fetal bovine serum, with or without treatments with synthetic matrix metalloproteinase inhibitors (MMPIs), at 37° C. and 5% CO2.
Endothelial cell migration and wound-healing assays: All experiments for this phase were performed in triplicate, and each consisted of […] wounded cultures utilizing serial concentrations of MMPIs: (1) an untreated control; (2) 100 μM MMPI; (3) 30 μM MMPI; (4) 10 μM MMPI; (5) 3 μM MMPI; (6) 1 μM MMPI; (7) 100 nM MMPI; (8) 10 nM MMPI; and (9) 1 nM MMPI. A 1 mL pipette tip was utilized to create a linear wound in a confluent monolayer of hBMECs. A fine, sterile needle was used to demarcate a cell-free “wounded field”. All cultures were photographed at that time. After 24 hours, the wounded cell culture was washed three times with phosphate buffered saline, fixed with 4% paraformaldehyde for 10-20 min, and stained with 0.1% crystal violet for 10-20 min. The stained culture was washed with ddH2O three times and left overnight to air dry. […] The density of the cell coverage in the wounded field was quantified utilizing the integrated morphometry analysis (IMA) (Metamorph System v.4.6r8, University Imaging Corp.). […]

[3] = system: human coronary artery smooth muscle cells (hCASMC); test: MMPI cytotoxicity / growth of hCASMC (trypan blue count); assay type: cell-based; settings: 24 hours
Protocol: Passage 7 human coronary artery smooth muscle cells (hCASMCs) were plated in a 10 cm dish containing 20 mL of smooth muscle basal medium (SmBm, Lonza, Cat. No. CC-3182) supplemented with 0.1% insulin, 0.1% epidermal growth factor (rhEGF), 0.2% fibroblast growth factor-B (rhFGF-B), 0.1% gentamicin/amphotericin (antibiotics), and 5% FBS. The cells were incubated for 24 hours at 37° C. and 5% CO2, with 20 mL of fresh SmBm added the following day. Fresh SmBm was added every 2 days until the culture was ˜70-80% confluent and contained a minimum of 5 mitotic figures when viewed at 100× magnification. At this time, cells were then trypsinized and seeded into 24-well plates at an initial density of 3,500 cells/cm^2 and grown to ˜60% confluence prior to MMPI treatment.
as §1, with “αMEM.” for “αMEM. The conditioned media was added to either hCASMCs or hMSCs and incubated for 24 hours.”

SMILES	melting point [°C]	hMSC growth curve [1]	inhibition on hBMEC wound healing [2]	hCASMC growth ([3]; lower concentrations, compared to identical concentrations of YHJ-6-286 and YHJ-7-23)	hCASMC growth curve ([3]; 1 nM to 100 μM)
NC(=O)N1C[C@H](NS(=O)(=O)c2ccc(Oc3ccccc3)cc2)[C@@H](S)C1 (racemic) [Example 1, (±)-N-Carbamoyl-trans-3-(4-phenoxybenzenesulfonamido)-4-mercaptopyrrolidine]	170 to 171	erratic results	pretty good inhibition	–	–
O=S(=O)(N[C@H]1CNC[C@@H]1S)c1ccc(Oc2ccccc2)cc1 (racemic) [Example 3, (±)-trans-3-(4-Phenoxybenzenesulfonamido)-4-mercaptopyrrolidine Hydrochloride]	–	–	–	increased hCASMC growth nearly two-fold	–
CN([C@H]1CN(C(N)=O)C[C@@H]1S)S(=O)(=O)c1ccc(Oc2ccccc2)cc1 (racemic) [Example 4, (±)-N-Carbamoyl-trans-3-(N-methyl-4-phenoxybenzenesulfonamido)-4-mercaptopyrrolidine]	–	steadily increased as the concentration of YHJ-7-23 was decreased	–	–	local minimum originating at 300 nM and minimizing at ˜30 nM
O=C(OCc1ccccc1)N1C[C@H](NS(=O)(=O)c2ccc(Oc3ccccc3)cc2)[C@@H](S)C1 (racemic) [Example 5, (±)-N-(Benzyloxycarbonyl)-trans-3-(4-phenoxybenzenesulfonamido)-4-mercaptopyrrolidine]	142 to 143	–	–	–	–
